The source of these data is US12024507B2, “Compounds as GLP-1R agonists” (Terns Pharmaceuticals, Inc., priority 2021, dated 2024).

In data set [1] the target is T1, human GLP-1R receptor (Homo sapiens, UniProt P43220).
T1 construct: expressed in transfected cells
The experiment in a line: GLP-1R cell assay (cAMP TR-FRET, low expression CHO-K1_hGLP-1Rlow_clone10 cell line). It counts as cell-based. Conditions: CHO-K1_hGLP-1Rlow_clone10 cells, relative to control GLP-1 peptide agonist, read-out: GLP1 EC50. The method, then:
Stable cell lines expressing high and low GLP-1R surface expression were generated in CHO-K1 cells transfected (Fugene 6) with a puromycin selectable DNA plasmid encoding human GLP-1R receptor (accession number: NM_002062.5) under control of an EF1A promoter. Transfected cells were seeded into 24-well plates (9,000 cells/well) containing complete medium and incubated in a humidified incubator at 37° C. with 5% carbon dioxide. After overnight incubation, medium was replaced with complete medium supplemented with puromycin (6 μg/mL) and refreshed every 2-3 days to select for stably transfected cells. Individual pools of selected cells were expanded prior to analysis for responsiveness to GLP-1 control peptide using a TR-FRET assay to detect cAMP (LANCE Ultra cAMP Assay, Perkin Elmer). Briefly, cells were collected in Versene solution, plated in 384-well plates (1,000 cells/well) and combined with serially diluted GLP-1R control peptide (10 nL) using an acoustic dispenser (ECHO). Plates were incubated for 30 minutes at 25° C. prior to the addition of EU-cAMP tracer (5 μL) and Ulight-anti-cAMP (5 μL) reagents to each well, followed by 15 minutes incubation at 25° C. TR-FRET signal was detected using an EnVision Multimode Plate Reader (excitation=320 nm; emission=615 and 655 nm). Dose-response curves were used to generate EC50 values as a measure of responsiveness to the GLP-1R control peptide. Selected cell lines were monitored for responsiveness over multiple passages to ensure stability. […] Briefly, GLP-1R expression was analyzed by flow cytometry using a fluorescein-labeled Exendin-4 peptide fluorescent probe (FLEX). Cells were harvested in Versene solution and washed 3-times with PBS+0.5% BSA before incubation with FLEX reagent (10 μM) for 2 hours at room temperature. After incubation, cells were washed 3-times in PBS+0.5% BSA before final resuspension in PBS prior to analysis by flow cytometry to measure FLEX mean fluorescence intensity (MFI) as a measure of GLP-1R expression on the cell surface.
For compound testing in the CHO-K1_hGLP-1Rlow_clone10 cell line, cells were seeded in 384-well plates (1,000 cells/well). Test compounds were serially diluted in DMSO (10-point, 3-fold dilution), added to wells using an ECHO dispenser (10 nL/well) and plates were centrifuged for 1 min and agitated for 2 min at room temperature prior to 30-minute incubation at 25° C. After incubation, Eu-cAMP (5 μL) and Ulight-anti-cAMP (5 μL) reagents were added to each well, followed by centrifugation for 1 minute, agitation for 2 minutes at room temperature, and final incubation of the plates at 25° C. for 15 minutes. Plates were read using an EnVision microplate reader (excitation=320 nm; emission=615 and 655 nm). Dose-response curves were generated from duplicate wells based on percent activation calculated relative to a control GLP-1 peptide agonist that was run in parallel. EC50 values were determined by fitting percent activation as a function of compound concentration using the Hill equation (XLfit).
The compounds tested were compound samples prepared according to the General Procedures described in the Examples section.
A general note: TR-FRET usually uses a lanthanide donor and a delayed reading to cut background.

Data set [2] is described as follows: Metabolic stability in rat hepatocytes. It is filed as in vitro ADME. The note with it: cryopreserved hepatocytes, 1×10^6 cells/mL; for CLint scaled at 1 μM: intrinsic clearance; for half-life at 1 μM: read-out: Rat T1/2. On the procedure:
Test compounds were incubated in rat and human hepatocytes and stability was assessed from the substrate […] approach. Test compounds were dissolved in dimethyl sulfoxide (DMSO) to create a 10 mM Stock, and then further diluted to create a 1000×Working Stock of 1 mM with DMSO in 96-well plates for test compounds and the positive control (midazolam). Vials containing cryopreserved hepatocytes were removed from the liquid nitrogen tank and immediately immersed in a 37° C. water bath. The vials were shaken gently until the contents had thawed and were then immediately emptied into 48 mL of pre-warmed HT Medium in a 50 mL conical tube. Cells remaining in the vial were resuspended with 1.0 mL of pre-warmed HT Medium and added to the conical tube. The tube was capped and then gently inverted several times to resuspend the hepatocytes. The cell suspension was centrifuged at 50×g at room temperature for 5 minutes and the supernatant discarded. The cell pellet was loosened by gently swirling the centrifuge tube and was re-suspended in 4 mL of warm Dulbecco's Modified Eagle medium (DMEM). Cell density was determined by a cell counter by Nexcelom, and DMEM medium was added to obtain a target density of 1×10^6 cells/mL. The assay was carried out in 96-well microtiter plates. Test Compounds were incubated at 1 μM with 1×10^6 cells/mL hepatocytes in DMEM for 0, 30, 60, 120 and 240 minutes. The incubation was carried out with gentle shaking at 37° C. under a humid atmosphere of 95% air/5% CO2. The volume of the incubation mixture was 37 μL with a final 0.1% DMSO. At each of the time points, the incubation was stopped by adding 150 μL quenching solution (100% acetonitrile, 0.1% formic acid containing bucetin as an internal standard for positive ESI mode). Subsequently, the mixtures were vortexed for 20 min and centrifuged at 4,000 RPM at 10° C. The supernatant (80 μL) was transferred to a clean 96-well plate and analyzed by LC-MS/MS. Midazolam at 1 μM with a final 0.1% DMSO was included as a positive control to verify assay performance. The percent parent remaining, intrinsic and predicted hepatic clearance and t1/2 were calculated. All samples were analyzed by LC-MS/MS using an AB Sciex API 4000 instrument, coupled to a Shimadzu LC-20AD LC Pump system. Separation was achieved using a Waters Atlantis T3 dC18 reverse phase HPLC column (20 mm×2.1 mm) at a flow rate of 0.5 mL/min. The mobile phase consisted of 0.1% formic acid in water (solvent A) and 0.1% formic acid in 100% acetonitrile (solvent B). Elution conditions are detailed below.
The ion optics of each test compound were optimized for their declustering potential (DP), […] (CE), collision-cell exit potential (CXP) and used in a selected ion monitoring experiment in the positive ion mode. The peak area ratio of each test compound to internal standard was then evaluated for stability. The extent of metabolism was calculated based on the disappearance of the test compound, compared to its initial concentration. The initial rates of clearance of the test compound were calculated using the linear regression plot of semi-log % remaining of the compound versus time.
The predicted hepatic clearance (CLhep) was calculated using the well stirred method with the following formula with CLint(in vivo) normalized based on liver weight: CLint(in vivo)=CLint×Hepatocellularity×liver weight CLhep predicted=(CLint(in vivo)×Qliver)/(CLint(in vivo)+Qliver) Where Qliver ((ml/min/kg) is Liver Blood Flow
The relevant physiological parameters of liver weight, blood flow, and hepatocellularity for various species are listed below:
Results are presented in the Table B3 below for the intrinsic clearance (mL/min/kg) and half-life (t1/2).

Structures are written as SMILES.

T1 sequence (P43220 24-463): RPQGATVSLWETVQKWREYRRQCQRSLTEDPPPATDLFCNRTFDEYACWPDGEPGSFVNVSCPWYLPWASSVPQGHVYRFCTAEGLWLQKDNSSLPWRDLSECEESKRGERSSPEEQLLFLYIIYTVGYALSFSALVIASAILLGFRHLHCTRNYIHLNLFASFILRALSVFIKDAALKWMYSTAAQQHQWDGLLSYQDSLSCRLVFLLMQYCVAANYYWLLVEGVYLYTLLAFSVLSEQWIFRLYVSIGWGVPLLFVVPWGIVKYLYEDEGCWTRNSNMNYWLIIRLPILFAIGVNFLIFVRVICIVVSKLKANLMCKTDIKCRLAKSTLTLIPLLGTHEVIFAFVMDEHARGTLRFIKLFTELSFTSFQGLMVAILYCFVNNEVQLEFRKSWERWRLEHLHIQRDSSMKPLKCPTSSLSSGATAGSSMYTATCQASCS

The term EC50 denotes the concentration at which the effect is half-maximal. By CLint scaled is commonly meant the capacity of the preparation to metabolise the compound, expressed as a volume cleared per time. Consider `N#Cc1ccc(COc2cccc(C3CCN(Cc4nc5ccc(-c6nc(=O)[nH]o6)cc5n4Cc4cncs4)CC3)n2)c(F)c1` [Compound 13, 3-fluoro-4-(((6-(1-((6-(3-oxo-2,3-dihydro-1,2,4-oxadiazol-5-yl)-1-(thiazol-5-ylmethyl)-1H-benzo[d]imidazol-2-yl)methyl)piperidin-4-yl)pyridin-2-yl)oxy)methyl)benzonitrile], for which the EC50 in data set [1] was 25.2 nM. Further, in data set [2], the CLint scaled at 1 μM came out at 111 ± 2.29 mL/min/kg and the half-life at 1 μM was determined as 30.1 ± 0.62 min.

As for `N#Cc1ccc(COc2cccc(C3CCN(Cc4nc5ccc(-c6nnn[nH]6)cc5n4C[C@@H]4CCO4)CC3)n2)c(F)c1` [Compound 8], the concentration giving a half-maximal response (EC50) in data set [1] was 15 nM. Besides, in data set [2], the CLint scaled at 1 μM was 46.5 ± 2.11 mL/min/kg and the half-life at 1 μM was found to be 71.5 ± 3.24 min.
